Patent publication US10973863B2, “Method for regulating, preventing and/or treating pulmonary injury” (SINPHAR PHARMACEUTICAL CO., LTD., priority 2017, dated 2021)

Tests used:
[1] = tested on: Mucin 5AC; test: Western blot: LPS-induced expression of Mucin 5AC in NCI-H929 cells; assay type: cell-based, human; conditions: 1 μg/mL LPS, 24 hours, vs control group
Text: As indicated above, the hypersecretion of mucus in airway can be observed in the patients suffering from pulmonary injury-related diseases, such as chronic obstructive pulmonary disease and emphysema, and the mucus hypersecretion is associated with the overexpression of mucins in pulmonary tissue. Symptoms like the increased sputum production will occur in the patients suffering from the mucin hypersecretion in airway, and the increased sputum will accumulate in the airway and lung, thereby making the airway narrow and increasing respiratory resistance. To investigate the effects of active ingredients of FU-LING extract in regulating, preventing, and/or treating the pulmonary injury-related diseases, such as chronic obstructive pulmonary disease and emphysema, a Western blot was conducted to measure the inhibitory rate of active ingredients of FU-LING extract (tumulosic acid and poricoic acid A) on the LPS-induced expression of Mucin 5AC in human lung epithelial NCI-H929 cells.
Human lung epithelial NCI-H929 cells were divided into ten groups and separately cultivated with the following media for 24 hours:
(1) Control group: an epithelial cell growth medium containing […];
(2) Positive control group: an epithelial cell growth medium containing 1 μg/mL LPS and 10 μM Dex;
(3) TA group (including four sub-groups): an epithelial cell growth medium containing […] the tumulosic acid (TA) provided by [preparation example C-1], wherein the tumulosic acid (TA) is present in the four sub-groups at a concentration of 1.56, 3.13, 6.25 and 12.5 μg/mL respectively; and
(4) PAA group (including four sub-groups): an epithelial cell growth medium containing 1 μg/mL LPS the poricoic acid A (PAA) provided by [preparation example C-1], wherein the poricoic acid A (PAA) is present in the four sub-groups at a concentration of 6.25, 12.5, 25 and 50 μg/mL respectively.
Thereafter, the proteins in the cells of each group were extracted and then subjected to a Western blot to measure the expression level of Mucin 5AC. The relative expression level of Mucin 5AC of each group was calculated by using the results of the control group as a basis (i.e., the expression level of control group was served as 1-fold).

[2] = tested on: MMP-9; test: Gelatin zymography: LPS-activated active expression of MMP-9 in NR8383 cells; assay type: cell-based, rat; conditions: Table 5, LPS 1 μg/mL, 24 hours
Text: As indicated above, when an inflammatory response occurs in animal's pulmonary tissue, the active inflammatory cells will secret MMPs that will destroy the pulmonary tissue structure, cause more serious pulmonary injury, and lead to the decrement in or the loss of pulmonary functions. […]
Thereafter, the medium of each group was collected and respectively subjected to the following procedures. A 10% polyacrylamide gel containing 0.2% gelatin was used to carry out the sodium dodecyl sulfate polyacrylamide gel electrophoresis (SDS-PAGE). After the electrophoresis was completed, the gel was sequentially soaked in 2.5% Triton X-100 solution for 90 minutes to remove SDS, soaked in distillation-distillation water (ddH2O) for 30 minutes, and placed in a reaction solution (50 mM Tris-HCl buffer containing 10 mM CaCl2 and 0.02% NaN3) at a temperature of 37° C. for 18 hours. After the foregoing reaction was completed, the gel was stained by a Coomassie blue staining solution, and the image of stained gel was taken and subjected to an image analysis. The image intensity (the image intensity was calculated based on the size of area and the shade of color) of highlight band (i.e., the gelatin in this area was degraded by MMPs, wherein the area locating around 95 kD molecular weight) on the gel of each group can reflect the active expression of MMP-9 of rat alveolar macrophage NR8383 cells under different conditions (the relative active expression of MMP-9 was calculated by serving the results of the blank group as 0% and serving that of the control group as 100%).
Rat alveolar macrophage NR8383 cells were divided into twenty-eight groups and separately cultivated with the following media for 24 hours: • (1) Blank group: a macrophage growth medium; • (2) Control group: a macrophage growth medium containing 1 μg/mL LPS; • (3) Positive control group: a macrophage growth medium containing 1 μg/mL LPS and 5 μM Prednisolone (a type of corticosteroid; abbreviated as “Pred”; purchased from Sigma-Aldrich); • (4) Extract C (including five sub-groups): a macrophage growth medium containing 1 μg/mL LPS and the extract C provided by [preparation example A-3-2], wherein the extract C is present in the five sub-groups at a concentration of […] respectively; • (5) Extract D (including five sub-groups): a macrophage growth medium containing 1 μg/mL UPS and the extract D provided by [preparation example A-4-2], wherein the extract D is present in the five sub-groups at a concentration of 0.78, 1.56, 3.13, 6.25 and 12.5 respectively; • (6) Extract E (including five sub-groups): a macrophage growth medium containing 1 μg/mL LPS and the extract E provided from [preparation example A-4-3], wherein the extract E is present in the five sub-groups at a concentration of 0.78, 1.56, 3.13, […], and 12.5 respectively; • (7) DATA group (including five sub-groups): a macrophage growth medium containing 1 μg/mL LPS and the dehydrotrametenolic acid (DTTA) provided by [preparation example C-1], wherein the dehydrotrametenolic acid (DTTA) is present in the five sub-groups at a concentration of 0.39, 0.78, 1.56, 3.13 and 6.25 μg/mL respectively; and • (8) PAA group (including live sub-groups): a macrophage growth medium containing 1 μg/mL LPS and the poricoic acid A (PAA) provided from [preparation example C-1], wherein the poricoic acid A (PAA) is present in the five sub-groups at a concentration of 6.25, 12.5, 25, 50 and 100 respectively.
Thereafter, the medium of each group was collected and analyzed by the analyzing procedures same as that of (1-1).

SMILES: C=C(CC[C@@H](C(=O)O)[C@H]1[C@H](O)C[C@@]2(C)C3=CC[C@@H](C(=C)C)[C@](C)(CCC(=O)O)C3=CC[C@]12C)C(C)C [PAA, poricoic acid A]
- Inhibitory rate on LPS-induced expression of Mucin 5AC ([1]; 6.25 μg/mL (low-dose)): up to 63%
- Inhibitory rate on LPS-induced expression of Mucin 5AC ([1]; 50 μg/mL (high-dose)): ≤ 87%
- Relative active expression of MMP-9 (%) ([2]; 6.25 μg/mL): 82%
- Relative active expression of MMP-9 (%) ([2]; 12.5 μg/mL): 77%
- Relative active expression of MMP-9 (%) ([2]; 25 μg/mL): 60%
- Relative active expression of MMP-9 (%) ([2]; 50 μg/mL): 35%
- Relative active expression of MMP-9 (%) ([2]; 100 μg/mL): 18%
